Holding throughout (format): cell-based, human
The subject of experiment [1] is A549 lung cancer cell. The experiment can be described thus: MTT anti-proliferative assay, A549. Conditions: for IC50: MTT, 48 h. Summed up: (§1)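 Anti-proliferative effect is measured with the MTT assay, which reports inhibition of net cell growth. Cells come from ATCC, are maintained in DMEM with FBS and are seeded into 96-well plates before treatment.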
The test system of experiment [2] is AGS gastric cancer cell. The experiment can be described thus: MTT anti-proliferative assay, AGS. Conditions: for IC50: MTT, 48 h. Summed up:
as §1

Experiment [3] concerns BEL-7402 liver cancer cell. The experiment can be described thus: MTT anti-proliferative assay, BEL-7402. Conditions: for IC50: MTT, 48 h. Summed up:
as §1

Experiment [4] has as its system HCT116 colectal cancer cell. Description: MTT anti-proliferative assay, HCT116. Conditions: for IC50: MTT, 48 h, read-out: IC50 HCT-116. In outline: as §1
The subject of experiment [5] is HeLa cervical cancer cell. The experiment can be described thus: MTT anti-proliferative assay, HeLa. Conditions: MTT, 48 h. In outline:
as §1

For experiment [6], the system named is HepG2 hepatoma cell. Description: MTT anti-proliferative assay, HepG2. Conditions: for IC50: MTT, 48 h, read-out: IC50 HepG-2. Summed up: as §1
For experiment [7], the system named is L-02 normal liver cell. Description: MTT assay, L-02 normal cells. Conditions: 48 h. Summed up: as §1
The subject of experiment [8] is MGC-803 late stage differentiation gastric cancer cell. The experiment can be described thus: MTT anti-proliferative assay, MGC-803. Conditions: for IC50: MTT, 48 h. In outline:
as §1

Experiment [9] has as its system MCF-7 breast cancer cell. Description: MTT anti-proliferative assay, MCF-7. Conditions: MTT, 48 h. Summed up: as §1
In experiment [10] the test system is MCF-10A normal breast cell. The experiment can be described thus: MTT assay, MCF-10A normal cells. Conditions: 48 h. In outline:
as §1

Experiment [11] has as its system Raji B lymphoblastoid cell. Description: MTT anti-proliferative assay, Raji. Conditions: for IC50: MTT, 48 h, read-out: IC50 Raji. Summed up:
as §1

The subject of experiment [12] is SGC-7901 early differentiation gastric cancer cell. Description: MTT anti-proliferative assay, SGC-7901. Conditions: for IC50: MTT, 48 h. Summed up:
as §1

The subject of experiment [13] is diffuse large B-cell lymphoma SU-DHL-10 cell. The experiment can be described thus: MTT anti-proliferative assay, SU-DHL-10. Conditions: MTT, 48 h; read-out: IC50 SU-DHL-10. In outline: as §1

The structures appear in SMILES notation.

Consider `N#C/C(=C\c1ccc(N2CCOCC2)cc1)c1cccc(OC(F)(F)F)c1` [Compound 1b2i], for which the 50% inhibitory concentration (IC50) was more than 100 µM in experiment [1]; 23.9 ± 2.7 µM in experiment [2]; 13 ± 1.1 µM in experiment [3]; 12.3 ± 1.6 µM in experiment [4]; more than 100 µM in experiment [5]; 23.5 ± 4.3 µM in [6]. Besides, the IC50 in experiment [7] is 28.5 ± 0.8 µM; in experiment [8], 10.8 ± 2.9 µM; in [9] it was more than 100 µM; in experiment [10], 79.6 ± 5.7 µM; in [11], 23.7 ± 2.1 µM; in experiment [12] it was 46 ± 4.9 µM. In addition, in experiment [13], the IC50 came out at 53.6 ± 7.5 µM. In addition, in experiment [2], the “SI (selectivity index), IC50 (L-02)/IC50 (AGS)” value (shortened to “SI (selectivity index) … (AGS)”) is more than 1.1. Also, the “SI (selectivity index), IC50 (L-02)/IC50 (BEL-7402)” value (from here on “SI (selectivity index) … (BEL-7402)”) in [3] is given as more than 2.1. The “SI (selectivity index), IC50 (L-02)/IC50 (HCT-116)” value (shortened to “SI (selectivity index) … (HCT-116)”) in experiment [4] is recorded as more than 2.3. For the same compound, the “SI (selectivity index), IC50 (L-02)/IC50 (HepG-2)” value (“SI (selectivity index) … (HepG-2)” below) in experiment [6] is reported as more than 1.2. In addition, the “SI (selectivity index), IC50 (L-02)/IC50 (MGC-803)” value (shortened to “SI (selectivity index) … (MGC-803)”) in experiment [8] was more than 2.6. Further, the “SI (selectivity index), IC50 (L-02)/IC50 (Raji)” value in experiment [11] is more than 1.1.

As to `COc1ccc(/C=C(\C#N)c2cccc(OC(F)(F)F)c2)cc1` [Compound 1b2j], the IC50 in experiment [1], in experiment [2], in [3], in experiment [4], in experiment [5] and in experiment [6] was more than 100 µM in each case. The IC50 is more than 100 µM in experiment [7]; more than 100 µM in experiment [8]; more than 100 µM in [9]; more than 100 µM in [10]; more than 100 µM in experiment [11]; 72.1 ± 4.5 µM in [12]. For the same compound, the IC50 in experiment [13] is more than 100 µM. The “SI (selectivity index), IC50 (L-02)/IC50 (SGC-7901)” value (from here on “SI (selectivity index) … (SGC-7901)”) in [12] is given as more than 1.3.

In the case of `CCCOc1ccc(/C=C(\C#N)c2cccc(OC(F)(F)F)c2)cc1` [Compound 1b2k], the IC50 in [1], in experiment [2], in experiment [3], in experiment [4], in experiment [5] and in experiment [6] was more than 100 µM in each case. In addition, the IC50 in [7], in experiment [8], in experiment [9], in experiment [10], in [11] and in experiment [12] was more than 100 µM throughout. Moreover, in [13], the IC50 was more than 100 µM.

Consider `N#C/C(=C\c1ccccn1)c1cccc(OC(F)(F)F)c1` [Compound 1b3a], for which the IC50 in experiment [1] is 32.6 ± 1.1 µM; in experiment [2], 15.4 ± 0.5 µM; in [3] it was more than 100 µM; in [4], 19.3 ± 0.1 µM; in experiment [5], 38.8 ± 3.5 µM; in experiment [6], 21.5 ± 7.6 µM. For the same compound, the IC50 in [7] turned out to be 35.9 ± 1.6 µM; in experiment [8], 20.7 ± 1.5 µM; in experiment [9] it was 25.5 ± 0.4 µM; in experiment [10], 22.7 ± 3.5 µM; in experiment [11], 56.6 ± 5.8 µM; in experiment [12], 20.9 ± 5.1 µM. In experiment [13], the IC50 came to 59.7 ± 0.8 µM. The “SI (selectivity index) … (BEL-7402)” value in experiment [3] is recorded as more than 5.2.

In the case of `N#C/C(=C\c1ccccc1)c1ccccc1OC(F)(F)F` [Compound 1c2a], the IC50 in experiment [1], in experiment [2], in experiment [3], in experiment [4], in experiment [5] and in experiment [6] was more than 100 µM in each case. Also, the IC50 in experiment [7], in experiment [8], in experiment [9], in experiment [10], in experiment [11] and in experiment [12] was more than 100 µM each time. Moreover, in experiment [13], the IC50 is more than 100 µM.

With `N#C/C(=C\c1ccc(Cl)cc1)c1ccccc1OC(F)(F)F` [Compound 1c2b], the IC50 is more than 100 µM in [1]; 31.4 ± 8.3 µM in experiment [2]; more than 100 µM in [3]; more than 100 µM in experiment [4]; more than 100 µM in experiment [5]; 70.5 ± 25.4 µM in [6]. The IC50 was more than 100 µM in experiment [7]; 29 ± 8.3 µM in experiment [8]; more than 100 µM in experiment [9]; more than 100 µM in experiment [10]; more than 100 µM in experiment [11]; more than 100 µM in experiment [12]. Besides, the IC50 in experiment [13] was more than 100 µM. Besides, the “SI (selectivity index) … (AGS)” value in [2] is on record as more than 3.1. The “SI (selectivity index) … (HepG-2)” value in [6] is on record as more than 1.4. The “SI (selectivity index) … (MGC-803)” value in experiment [8] was more than 3.4.

As to `N#C/C(=C\c1ccc(Br)cc1)c1ccccc1OC(F)(F)F` [Compound 1c2c], the IC50 is more than 100 µM in [1]; 16.7 ± 2.3 µM in experiment [2]; more than 100 µM in [3]; 17.2 ± 5.2 µM in [4]; more than 100 µM in experiment [5]; 27.9 ± 2.4 µM in experiment [6]. Moreover, the IC50 in experiment [7] was 42.2 ± 11.5 µM; in experiment [8], 19.6 ± 6.7 µM; in experiment [9], more than 100 µM; in experiment [10], more than 100 µM; in [11], 42.4 ± 1.7 µM; in experiment [12], more than 100 µM. In addition, the IC50 in experiment [13] is more than 100 µM. Also, the “SI (selectivity index) … (AGS)” value in [2] was more than 2.5. In addition, the “SI (selectivity index) … (HCT-116)” value in experiment [4] is reported as more than 2.4. In addition, the “SI (selectivity index) … (HepG-2)” value in [6] is more than 1.5. Besides, the “SI (selectivity index) … (MGC-803)” value in [8] is more than 2.1.

Take `Cc1ccc(/C=C(\C#N)c2ccccc2OC(F)(F)F)cc1` [Compound 1c2d]: the “SI (selectivity index), IC50 (L-02)/IC50 (A549)” value in experiment [1] is on record as more than 1.9. In addition, the half-maximal inhibitory concentration (IC50) in [1] was 50.7 ± 7.4 µM; in [2], 6.3 ± 0.4 µM; in [3], 17.4 ± 4.2 µM; in [4], more than 100 µM; in experiment [5], more than 100 µM; in experiment [6] it was 26.7 ± 10.1 µM. Further, the IC50 is more than 100 µM in experiment [7]; 13.1 ± 3.6 µM in experiment [8]; more than 100 µM in experiment [9]; more than 100 µM in experiment [10]; 60.5 ± 19.1 µM in experiment [11]; 50.1 ± 5.9 µM in experiment [12]. In [13], the IC50 is more than 100 µM. For the same compound, the “SI (selectivity index) … (AGS)” value in [2] is given as more than 15.6. Moreover, the “SI (selectivity index) … (BEL-7402)” value in [3] is on record as more than 5.7. Also, the “SI (selectivity index) … (HepG-2)” value in [6] was more than 3.7. Further, the “SI (selectivity index) … (MGC-803)” value in experiment [8] is more than 7.6. Besides, the “SI (selectivity index), IC50 (L-02)/IC50 (Raji)” value in experiment [11] was more than 1.6. Further, the “SI (selectivity index) … (SGC-7901)” value in experiment [12] is more than 1.9.

`COc1ccc(/C=C(\C#N)c2ccccc2OC(F)(F)F)cc1` [Compound 1c2e]: the IC50 in experiment [1] is more than 100 µM; in [2], 7.6 ± 0.6 µM; in experiment [3], 10.8 ± 2.3 µM; in experiment [4], 8.4 ± 2.4 µM; in [5], 75.8 ± 12.4 µM; in experiment [6] it was 24.9 ± 7 µM. For the same compound, the IC50 in experiment [7] was 36.1 ± 4.8 µM; in [8] it was 2.5 ± 1.1 µM; in [9], more than 100 µM; in [10] it was more than 100 µM; in [11], 41.3 ± 5.5 µM; in experiment [12], 7.8 ± 0.8 µM. In experiment [13], the IC50 is more than 100 µM. The “SI (selectivity index) … (AGS)” value in [2] was more than 4.7. In addition, the “SI (selectivity index) … (BEL-7402)” value in [3] is on record as more than 3.3. Besides, in experiment [4], the “SI (selectivity index) … (HCT-116)” value is more than 4.2. Besides, the “SI (selectivity index) … (HepG-2)” value in experiment [6] is reported as more than 1.4. For the same compound, in [8], the “SI (selectivity index) … (MGC-803)” value is listed as more than 14.2. Further, the “SI (selectivity index) … (SGC-7901)” value in experiment [12] was more than 4.5.
